Laboratory results as given in patent US20190290772A1 (published 2019).

Legend:
[1] = molecular target: human glucagon receptor (GcgR) (Homo sapiens, UniProt P47871); experiment: Human glucagon receptor activation (Table 1); format: cell-based; conditions: read-out: EC50 (nM) hGcgR
[2] = tested on: diet-induced obese (DIO) mice; experiment: Weight-lowering and metabolic pharmacology in diet-induced obese mice on HFHSD; format: in vivo; conditions: for food intake: DIO mice (FIG. 5C); for effect on body weight: DIO mice on HFHSD, equimolar doses, daily s.c. (FIG. 5A)
Method: (§1) For pharmacology studies on energy metabolism in obese mice (DIO mice), male C57Bl/6j mice (Jackson Laboratories) were fed a diabetogenic diet (Research Diets D12331), which is a high-sucrose diet with 58% kcal from fat 25.5% kcal from carbohydrates, and 16.4% kcal from protein. Dietary challenges began at 8 weeks of age. HFHSD mice were single- or group-housed on a 12:12-h light-dark cycle at 22° C. with free access to food and water. Mice were maintained under these conditions for a minimum of 16 weeks before initiation of pharmacological studies and were between the ages of 6 months to 12 months old. All injections and tests were performed during the light cycle. Compounds were administered in a vehicle of 1% Tween-80 and 1% DMSO and were given by daily subcutaneous injections at the indicated doses at a volume of 5 μl per g body weight. Mice were randomized and evenly distributed to test groups according to body weight and body composition. If ex vivo molecular biology/histology/biochemistry analyses were performed, the entire group of mice for each treatment was analyzed and scored in a blinded fashion.
Compounds were administered by repeated subcutaneous injections in the middle of the light phase at the indicated doses with the indicated durations. Co-administration of compounds was administered by single formulated injections. Body weights and food intake were measured every day or every other day after the first injection. All studies with wild-type mice were performed with a group size of n=8 or greater using mice on a C57B16j background.
For assessment of intraperitoneal glucose tolerance during chronic treatment, the challenge tests were performed at least 24 hours after the last administration of compounds. The investigators were not blinded to group allocation during the in vivo experiments or to the assessment of longitudinal endpoints. All rodent studies were approved by and performed according to the guidelines of the Institutional Animal Care and Use Committee of the Helmholtz Center Munich, University of Cincinnati, Universite de Lyon, and in accordance with guidelines of the Association for the Assessment and Accreditation of Laboratory and Animal Care (AAALAC # Unit Number: 001057) and appropriate federal, state and local guidelines, respectively.
Whole-body composition (fat and lean mass) was measured using nuclear magnetic resonance technology (EchoMRI).

[3] = tested on: diet-induced obese (DIO) mice; experiment: Indirect calorimetry in DIO mice (energy expenditure, RER, home-cage activity, food intake); format: in vivo
Method: as §1, with “fashion. Energy intake, energy expenditure, respiratory exchange ratio, and home-cage activity were assessed using a combined indirect calorimetry system (TSE Systems). O2 consumption and CO2 production were measured every 10 min for a total of up to 160 h (after 24 h of adaptation) to determine the respiratory quotient and energy expenditure after an initial treatment regimen. Food intake was determined continuously for the same time as the indirect calorimetry assessments by integration of scales into the sealed cage environment. Home-cage locomotor activity was determined using a multidimensional infrared light beam system with beams scanning the bottom and top levels of the cage, and activity being expressed as beam breaks.” for “fashion.”

[4] = tested on: diet-induced obese (DIO) mice; experiment: Heart weight / cardiac hypertrophy in DIO mice; conditions: mouse, in vivo
Method: For pharmacology studies on energy metabolism in obese mice (DIO mice), male C57Bl/6j mice (Jackson Laboratories) were fed a diabetogenic diet (Research Diets D12331), which is a high-sucrose diet with 58% kcal from fat 25.5% kcal from carbohydrates, and 16.4% kcal from protein. Dietary challenges began at 8 weeks of age. HFHSD mice were single- or group-housed on a 12:12-h light-dark cycle at 22° C. with free access to food and water. Mice were maintained under these conditions for a minimum of 16 weeks before initiation of pharmacological studies and were between the ages of 6 months to 12 months old. All injections and tests were performed during the light cycle. Compounds were administered in a vehicle of 1% Tween-80 and 1% DMSO and were given by daily subcutaneous injections at the indicated doses at a volume of 5 μl per g body weight. Mice were randomized and evenly distributed to test groups according to body weight and body composition. If ex vivo molecular biology/histology/biochemistry analyses were performed, the entire group of mice for each treatment was analyzed and scored in a blinded fashion. Compounds were administered by repeated subcutaneous injections in the middle of the light phase at the indicated doses with the indicated durations. […] Body weights and food intake were measured every day or every other day after the first injection. […]

Row | SMILES | EC50 [1] [nM] | food intake [2] | effect on body weight [2] | absolute decrease in body weight from baseline ([2]; DIO mice, 100 nmoles/kg, daily subcutaneous treatment, after a week (FIG. 5A)) [%] | food intake during calorimetry ([3]; DIO mice (FIG. 6D)) | body weight loss during calorimetry study ([3]; DIO mice (FIG. 6E)) | home cage / ambulatory activity ([3]; DIO mice (FIG. 6F)) | whole-body energy expenditure ([3]; DIO mice, indirect calorimetry (FIG. 6C)) | glucose tolerance ([2]; DIO mice, higher dose, equimolar (FIG. 5D)) | heart weight / cardiac hypertrophy [4]
1 | CC[C@H](C)[C@H](NC(=O)[C@H](Cc1ccccc1)NC(=O)[C@H](CCC(=O)O)NC(=O)[C@H](CCCCN)NC(=O)[C@H](C)NC(=O)[C@H](C)NC(=O)[C@H](CCC(N)=O)NC(=O)[C@H](CCC(=O)O)NC(=O)[C@H](CCC(=O)O)NC(=O)[C@H](CC(C)C)NC(=O)[C@H](Cc1ccc(O)cc1)NC(=O)[C@H](CO)NC(=O)[C@H](CO)NC(=O)[C@@H](NC(=O)[C@H](CC(=O)O)NC(=O)[C@H](CO)NC(=O)[C@@H](NC(=O)[C@H](Cc1ccccc1)NC(=O)[C@@H](NC(=O)CNC(=O)[C@H](CCC(=O)O)NC(=O)C(C)(C)NC(=O)[C@@H](N)Cc1c[nH]cn1)[C@@H](C)O)[C@@H](C)O)C(C)C)C(=O)N[C@@H](C)C(=O)N[C@@H](Cc1c[nH]c2ccccc12)C(=O)N[C@@H](CC(C)C)C(=O)N[C@H](C(=O)N[C@@H](CCCCN)C(=O)NCC(=O)NCC(=O)N1CCC[C@H]1C(=O)N[C@@H](CO)C(=O)N[C@@H](CO)C(=O)NCC(=O)N[C@@H](C)C(=O)N1CCC[C@H]1C(=O)N1CCC[C@H]1C(=O)N1CCC[C@H]1C(=O)N[C@@H](CO)C(=O)N[C@@H](CCCCNC(=O)CCC(=O)N[C@@H](Cc1cc(I)c(Oc2ccc(O)c(I)c2)c(I)c1)C(=O)O)C(N)=O)C(C)C [IUB687, IUB48-(Suc-T3-OH)-amide] | > 100 | no reductions in food intake | significantly lowered body weight in a dose-dependent manner | 11 | – | – | – | – | – | –
2 | CC[C@H](C)[C@H](NC(=O)[C@H](Cc1ccccc1)NC(=O)[C@H](CCC(=O)O)NC(=O)[C@H](CCCCN)NC(=O)[C@H](C)NC(=O)[C@H](C)NC(=O)[C@H](CCC(N)=O)NC(=O)[C@H](CCC(=O)O)NC(=O)[C@H](CCC(=O)O)NC(=O)[C@H](CC(C)C)NC(=O)[C@H](Cc1ccc(O)cc1)NC(=O)[C@H](CO)NC(=O)[C@H](CO)NC(=O)[C@@H](NC(=O)[C@H](CC(=O)O)NC(=O)[C@H](CO)NC(=O)[C@@H](NC(=O)[C@H](Cc1ccccc1)NC(=O)[C@@H](NC(=O)CNC(=O)[C@H](CCC(=O)O)NC(=O)C(C)(C)NC(=O)[C@@H](N)Cc1c[nH]cn1)[C@@H](C)O)[C@@H](C)O)C(C)C)C(=O)N[C@@H](C)C(=O)N[C@@H](Cc1c[nH]c2ccccc12)C(=O)N[C@@H](CC(C)C)C(=O)N[C@H](C(=O)N[C@@H](CCCCN)C(=O)NCC(=O)NCC(=O)N1CCC[C@H]1C(=O)N[C@@H](CO)C(=O)N[C@@H](CO)C(=O)NCC(=O)N[C@@H](C)C(=O)N1CCC[C@H]1C(=O)N1CCC[C@H]1C(=O)N1CCC[C@H]1C(=O)N[C@@H](CO)C(=O)N[C@@H](CCCCN)C(N)=O)C(C)C [IUB48] | > 100 | – | minimal impact on body weight | – | – | – | – | – | – | –
3 | N[C@@H](Cc1cc(I)c(Oc2ccc(O)c(I)c2)c(I)c1)C(=O)O [Peptide T3, Triiodothyronine] | – | increased | minimal impact on body weight | – | hyperphagia | less body weight loss | significantly increased home cage activity | substantially increased whole-body energy expenditure | improved glycemic control | –
4 | CC[C@H](C)[C@H](NC(=O)[C@H](Cc1ccccc1)NC(=O)[C@H](CCC(=O)O)NC(=O)[C@H](CCCCN)NC(=O)[C@H](C)NC(=O)[C@H](C)NC(=O)[C@H](CCC(N)=O)NC(=O)[C@H](CCC(=O)O)NC(=O)[C@H](CCC(=O)O)NC(=O)[C@H](CC(C)C)NC(=O)[C@H](Cc1ccc(O)cc1)NC(=O)[C@H](CO)NC(=O)[C@H](CO)NC(=O)[C@@H](NC(=O)[C@H](CC(=O)O)NC(=O)[C@H](CO)NC(=O)[C@@H](NC(=O)[C@H](Cc1ccccc1)NC(=O)[C@@H](NC(=O)CNC(=O)[C@H](CCC(=O)O)NC(=O)C(C)(C)NC(=O)[C@@H](N)Cc1c[nH]cn1)[C@@H](C)O)[C@@H](C)O)C(C)C)C(=O)N[C@@H](C)C(=O)N[C@@H](Cc1c[nH]c2ccccc12)C(=O)N[C@@H](CC(C)C)C(=O)N[C@H](C(=O)N[C@@H](CCCCN)C(=O)NCC(=O)NCC(=O)N1CCC[C@H]1C(=O)N[C@@H](CO)C(=O)N[C@@H](CO)C(=O)NCC(=O)N[C@@H](C)C(=O)N1CCC[C@H]1C(=O)N1CCC[C@H]1C(=O)N1CCC[C@H]1C(=O)N[C@@H](CO)C(=O)N[C@@H](CCCCNC(=O)CC[C@H](NC(=O)[C@@H](N)Cc1cc(I)c(Oc2ccc(O)c(I)c2)c(I)c1)C(=O)O)C(N)=O)C(C)C [IUB686, IUB48-(gE-T3-NH2)-amide] | > 100 | – | – | – | – | – | – | – | – | did not increase raw heart weight
